What was measured:
[1] = system: human non-small cell lung cancer (A549) cell lines; test: Cell survival rate (MTS) of A549 cells; type: cell-based; conditions: for reduction in survival rate: individually administered at concentrations ranging from 2 to 80 nM
Procedure: (§1) Human cancer cell lines, including non-small cell lung cancer (A549), glioblastoma (U87), glioblastoma (T98G), erythroleukemia type cell line (K-562), acute monocytic leukemia (THP-1), hepatocellular carcinoma (HepG2), colorectal cancer (HCT116), ovarian cancer (TOV-21G), triple-negative breast cancer (MDA-MB-231), or drug-resistant human breast cancer (MCF7-resistant), were cultured in media supplemented with 10% (v/v) fetal bovine serum (FBS) (Penicillin-Streptomycin Solution, ACE Biolabs, CC1009), glutamine-enriched Nutrient Mixture F-12 Ham Kaighn's Modification (F-12/K, SIGMA-ALDRICH, USA), and RPMI-1640 (HiMedia Laboratories LLC, USA). The cell lines were separately incubated in a 5% CO2 atmosphere at 37° C. using a controlled incubator (Astec-SCA-165DS).
(§2) Different cancer cell lines were seeded in 96-well plates and allowed to adhere for 24 hours. Cells were then treated with combinations of three drugs, while untreated cells served as the control group. 20 μL of MTS reagent (Promega, USA) was added to each well and incubated at 37° C. for one hour. Optical density (OD) was measured at 490 nm using an ELISA detector (BioTek EPOCH2) to evaluate the ell viability and proliferation by using the following formula: […]
(§3) In some embodiments of the present invention, drug concentrations used for testing cancer cell lines is in nM and the effective dose range ranged from 0.8 nM to 83 nM.
To evaluate whether the pharmaceutical composition containing various pharmacologically active ions could produce synergistic drug effects, tests were conducted on human non-small cell lung cancer (A549) cell lines. The dose units in Table 2 are expressed in nM. The pharmacologically active ion used in this study was gluconate ion.
To evaluate whether varying dosages of the pharmaceutical composition of the present invention could inhibit the survival rate of human non-small cell lung cancer cell line (A549), cell survival analyses of A549 were conducted.
In this experiment, the pharmacologically active copper ion was cupric in the form of copper gluconate.

[2] = system: glioblastoma (T98G) cell line; test: Cell survival rate (MTS) of T98G cells; type: cell-based, Human
Procedure: as §1, §2, §3
To evaluate the inhibitory effect of the pharmaceutical composition of the present invention on the survival rate of glioblastoma (T98G) cell line, analysis on survival rate was performed.
The active copper ion used in this study was copper gluconate.

[3] = system: glioblastoma (U-87) cell line; test: Cell survival rate (MTS) of U-87 cells; type: cell-based, Human
Procedure: as §1, §2, §3
To evaluate the inhibitory effect of the pharmaceutical composition of the present invention on the survival rate of glioblastoma (U-87) cell line, analysis on survival rate was performed.
The active copper ion used in this study was copper gluconate. […] Using the pharmaceutical composition, the concentrations could be reduced while achieving a higher inhibition rate.

[4] = system: human non-small cell lung cancer (A549) cell line; test: In vivo tumor suppression, A549 subcutaneous tumor model in nude mice; set-up: species or system Balb/c nude mice; conditions: A549 tumors in nude mice; for Tumor Weight: after sacrifice
Description: (§4) Female, 5-week-old Balb/c CAnN.Cg-Foxnlnu/CrlNarl nude mice were obtained from the National Laboratory Animal Center. […] Experiments commenced when they reached six weeks of age.
(§5) Nude mice of six weeks of age were used to establish two lung epithelial carcinoma and animal models. 1×10^7 cells of Human non-small cell lung cancer (NSCLC) cell line A549 and of human lung squamous carcinoma cell line H520, provided by the Food Industry Research and Development Institute in Taiwan, were subcutaneously injected 100 μL into the dorsal area near the right hind limb.
A549 model: 6 mice per group, administered orally once daily for 25 days.
(§6) H520 model: 7 mice per group, administered orally once daily for 13 days. The pharmacologically active multivalent ions used were copper ions in the form of copper gluconate.
(§7) Tumor volume was measured weekly using a tumor measurement device (TM900, Peira, Turnhout, Belgium). After five weeks of drug administration, the mice were sacrificed, and tumors were excised from the right hind limb. Tumor volume was calculated based on the longest and shortest diameters using the formula: […]
(§8) The tumors were then weighed and recorded. Tumor inhibition rates were calculated using the control group as a baseline: […]
A tumor model was established in nude mice via subcutaneous injection. Tumor size was monitored for 14 days, after which the mice were divided into six groups and treated with the pharmaceutical composition. The pharmaceutical-using group continued to be fed the test drug by oral gavage.

[5] = system: human lung squamous cell carcinoma (H520) cell line; test: In vivo tumor suppression, H520 subcutaneous tumor model in nude mice; set-up: species or system Balb/c nude mice; conditions: H520 tumors in nude mice
Description: as §4, §5, §6, §7, §8
A tumor model was established in nude mice via subcutaneous injection. Tumor size was measured over 14 days, after which the mice were then divided into six groups and treated with the pharmaceutical composition. The pharmaceutical-using group continued to be fed the test drug by oral gavage. Due to the rapid growth rate of H520 tumors in vivo, animals were sacrificed when tumors reached a specific size. Tumor model nude mice were sacrificed after 13 days of administration to evaluate changes in tumor growth and observe the inhibitory effect of the test drug on tumors.

[6] = system: human lung squamous cell carcinoma (H520) cell line; test: as above; set-up: species or system Balb/c nude mice; conditions: H520 tumors in nude mice, oral once daily
[7] = oral once daily for 25 days, when sacrificed
[8] = oral once daily, Day 7 of administration
[9] = oral once daily for 13 days, when sacrificed

Compound: copper gluconate [cupric]
- reduction in survival rate [1]: no significant reduction in survival rate
- Survival Rate (%) ([1]; single agent 1 nM (Table 2)): 103.70%
- Survival Rate (%) ([1]; single agent 80 nM (Table 3)): 109.28%
- Survival Rate (%) ([2]; single agent 16 nM): 102.03%
- Survival Rate (%) ([2]; single agent 41 nM): 102.19%
- Survival Rate (%) ([2]; single agent 83 nM): 98.35%
- Survival Rate (%) ([3]; single agent 16 nM): 103.71%
- Survival Rate (%) ([3]; single agent 41 nM): 103.97%
- Survival Rate (%) ([3]; single agent 83 nM): 101.73%

Compound: [Zn+2] [zinc]
- Survival Rate (%) ([1]; single agent 1 nM (Table 2)): 104.71%

Compound: [Ca] [calcium]
- Survival Rate (%) ([1]; single agent 1 nM (Table 2)): 103.98%

Compound: O=C(Nc1ccc([N+](=O)[O-])cc1Cl)c1cc(Cl)ccc1O [Niclosamide]
- reduction in survival rate [1]: no significant reduction in survival rate
- Survival Rate (%) ([1]; single agent 2 nM (Table 3)): 112.66%
- Survival Rate (%) ([1]; single agent 6 nM (Table 2)): 98.00%
- Survival Rate (%) ([2]; single agent 8 nM): 92.50%
- Survival Rate (%) ([2]; single agent 16 nM): 87.87%
- Survival Rate (%) ([3]; single agent 8 nM): 89.33%
- Survival Rate (%) ([3]; single agent 16 nM): 88.60%
- Tumor Weight [4]: 0.330 g
- tumor volume inhibition rates compared to Group S1 ([4]; at the time of sacrifice): 12.78%
- average tumor weight inhibition rates compared to Group S1 ([4]; following sacrifice): 13.5%
- Tumor Volume [4, 7]: 396.1 mm^3
- Tumor Volume [4, 8]: 73.4 mm^3
- Tumor Volume ([4]; oral once daily, Day 11): 89.7 mm^3
- Tumor Volume ([4]; oral once daily, Day 14): 136.3 mm^3
- Tumor Volume ([4]; oral once daily, Day 17): 179.6 mm^3
- Tumor Volume ([4]; oral once daily, Day 20): 219.0 mm^3
- Tumor Volume ([4]; oral once daily, Day 23): 319.8 mm^3
- Tumor Weight ([5]; after sacrifice): 0.955 g
- average tumor weight inhibition rates compared to Group S1 ([5]; after sacrifice): 30.5%
- tumor volume inhibition rates compared to Group S1 ([5]; at the time of sacrifice): 30.49%
- Tumor Volume [5, 9]: 1604.3 mm^3
- Tumor Volume ([5]; oral once daily, Day 7): 538.8 mm^3
- Tumor Volume ([6]; Day 4 of administration): 269.6 mm^3
- Tumor Volume ([6]; Day 9): 802.4 mm^3
- Tumor Volume ([6]; Day 11): 1204.1 mm^3

Compound: [Mg] [magnesium]
- Survival Rate (%) ([1]; single agent 1 nM (Table 2)): 100.52%

Compound: [Fe+2] [ferrous]
- Survival Rate (%) ([1]; single agent 1 nM (Table 2)): 106.27%

Compound: CCN(CC)C(=S)SSC(=S)N(CC)CC [Disulfiram]
- Survival Rate (%) ([1]; single agent 1 nM (Table 2)): 99.58%
- Survival Rate (%) ([1]; single agent 80 nM (Table 3)): 93.85%
- Survival Rate (%) ([2]; single agent 16 nM): 96.37%
- Survival Rate (%) ([2]; single agent 41 nM): 97.27%
- Survival Rate (%) ([2]; single agent 83 nM): 96.15%
- Survival Rate (%) ([3]; single agent 16 nM): 102.66%
- Survival Rate (%) ([3]; single agent 41 nM): 101.02%
- Survival Rate (%) ([3]; single agent 83 nM): 63.98%

Compound: COc1cc2ncnc(Nc3ccc(F)c(Cl)c3)c2cc1OCCCN1CCOCC1 [Group S4, Gefitinib]
- Tumor Weight [4]: 0.197 g
- Tumor Volume [4, 7]: 239.6 mm^3
- Tumor Volume [4, 8]: 54.2 mm^3
- Tumor Volume ([4]; oral once daily, Day 11): 69.5 mm^3
- Tumor Volume ([4]; oral once daily, Day 14): 82.0 mm^3
- Tumor Volume ([4]; oral once daily, Day 17): 102.8 mm^3
- Tumor Volume ([4]; oral once daily, Day 20): 141.3 mm^3
- Tumor Volume ([4]; oral once daily, Day 23): 202.6 mm^3
- Tumor Weight ([5]; after sacrifice): 0.981 g
- Tumor Volume [5, 9]: 1653.1 mm^3
- Tumor Volume ([5]; oral once daily, Day 7): 506.4 mm^3
- Tumor Volume ([6]; Day 4 of administration): 259.6 mm^3
- Tumor Volume ([6]; Day 9): 898.6 mm^3
- Tumor Volume ([6]; Day 11): 1290.0 mm^3

Compound: [Mn+2] [manganese]
- Survival Rate (%) ([1]; single agent 1 nM (Table 2)): 104.35%

— patent US20260060944A1, “PHARMACEUTICAL COMPOSITION AND USE THEREOF” (priority 2022, published 2026)
